For 14 compounds, EC50 results are on record in patent US12441730B2, “PRMT5 inhibitors” (Merck Sharp & Dohme LLC, priority 2019, dated 2025).

The EC50 is the midpoint of the concentration-response curve.

Test [1] relates to symmetric dimethylation of arginine (SDMA) of PRMT5 substrates in MCF-7 cells. Nature of the test: PRMT5 Cell Target Engagement (TE) Assay. Format: cell-based. The settings on record: 3 days treatment, SDMA high content imaging. The source says:
PRMT5 Cell Target Engagement (TE) Assay
The PRMT5 TE assay is a biomarker assay for identifying compounds that inhibit symmetric dimethylation of arginine (SDMA) of PRMT5 substrates. The following substrates have been reported for PRMT5: histone H2A and H4 R3, Histone H3 R2, Histone H3 R8, spliceosome Sm proteins, ribosomal protein RPS10, p53, FEN1, nucleoplasmin, nucleolin, EGFR and EBNA. The assay focuses on detecting symmetrically dimethylated nuclear proteins using high content imaging technology. Detection of the expression of symmetrically dimethylated nuclear proteins is through a mixture of primary rabbit monoclonal antibodies to SDMA (CST 13222), which in turn recognized by an Alexafluor 488 dye-conjugated anti-rabbit IgG secondary antibody. The IN Cell Analyzer 2200 or Opera-Phenix measures nuclear Alexafluor 488 fluorescent dye intensity that is directly related to the level of expression of symmetrically dimethylated nuclear proteins at the single cell level. Nuclear AF488 dye intensities are compared to the mean value for DMSO treated cells (MIN) to report percent of inhibition for each compound-treated well.
In this assay, the cell potency (EC50) of each compound was determined from a ten point (1:3 serial dilution; top compound concentration of 10000 nM) titration curve using the following outlined procedure. Each well of a BD falcon collagen coated black/clear bottom 384-well plate was seeded with 4000 MCF-7 cells in 30 μl media and allowed to attach for 5 h. Media is ATCC-formulated Eagle's Minimum Essential Medium, Catalog No. 30-2003. To make the complete growth medium, the following components were added to the base medium: 0.01 mg/mL human recombinant insulin; fetal bovine serum to a final concentration of 10%. Additional 30 μl of media containing 2× compounds were added to each well. Cells were treated for 3 days in 37° C. CO2 incubator. On day 3, cells were fixed with Cytofix, permeabilized with 0.4% Triton-X-100/Cytofix, and washed with D-PBS without Ca/Mg. Cells were blocked with Licor Odessey blocking reagent for 1 h at room temperature, followed by incubation with anti-SDMA (1:1000) antibody at 4° C. overnight. 1° antibody was removed, followed by three washings with DPBS without Ca/Mg and 0.05% Tween20. Hoechst (5 μg/mL), Cell Mask deep stain (1:2000) and Alexa488-conjugated goat anti-rabbit IgG (2 μg/mL) was added for 1 h at room temperature. A final washing step (three washes) was performed before sealing plate for imaging on In Cell Analyzer 2200 or Opera-Phenix. Images from analyzer were uploaded to Columbus (at WP or BOS) for image analysis. IC50 values were determined by 4 parameters robust fit of percent fluorescence units vs. (Log10) compound concentrations.

In test [2] the target is T1, Full-length (FL)-PRMT5-MEP50 enzyme complex (Homo sapiens, UniProt O14744).
T1 construct: Full-length (FL)-PRMT5-MEP50 enzyme complex (recombinant proteins from baculovirus-transfected Sf21 cells: FL-PRMT5; MW=73837 kDa and FL-MEP50; MW=38614); made in house; host or cells: baculovirus-transfected Sf21 cells
T1 sequence (O14744 whole entry): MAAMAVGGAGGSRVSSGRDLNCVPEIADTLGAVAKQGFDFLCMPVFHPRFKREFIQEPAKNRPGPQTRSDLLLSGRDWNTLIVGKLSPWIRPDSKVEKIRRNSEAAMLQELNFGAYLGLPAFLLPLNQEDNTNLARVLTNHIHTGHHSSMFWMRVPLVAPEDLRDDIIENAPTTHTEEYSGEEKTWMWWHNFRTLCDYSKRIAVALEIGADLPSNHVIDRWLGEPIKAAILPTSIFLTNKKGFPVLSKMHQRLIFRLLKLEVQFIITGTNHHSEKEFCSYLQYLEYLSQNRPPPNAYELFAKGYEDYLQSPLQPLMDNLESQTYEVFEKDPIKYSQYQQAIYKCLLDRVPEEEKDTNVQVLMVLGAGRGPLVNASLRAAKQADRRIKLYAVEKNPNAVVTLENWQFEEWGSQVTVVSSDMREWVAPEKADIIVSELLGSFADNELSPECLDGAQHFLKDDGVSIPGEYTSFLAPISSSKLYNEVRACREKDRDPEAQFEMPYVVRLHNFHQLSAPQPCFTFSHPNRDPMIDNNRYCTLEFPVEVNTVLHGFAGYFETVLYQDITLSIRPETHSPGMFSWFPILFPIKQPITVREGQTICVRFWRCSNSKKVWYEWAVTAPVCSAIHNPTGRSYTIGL
T1 sequence (Q9BQA1 whole entry partner): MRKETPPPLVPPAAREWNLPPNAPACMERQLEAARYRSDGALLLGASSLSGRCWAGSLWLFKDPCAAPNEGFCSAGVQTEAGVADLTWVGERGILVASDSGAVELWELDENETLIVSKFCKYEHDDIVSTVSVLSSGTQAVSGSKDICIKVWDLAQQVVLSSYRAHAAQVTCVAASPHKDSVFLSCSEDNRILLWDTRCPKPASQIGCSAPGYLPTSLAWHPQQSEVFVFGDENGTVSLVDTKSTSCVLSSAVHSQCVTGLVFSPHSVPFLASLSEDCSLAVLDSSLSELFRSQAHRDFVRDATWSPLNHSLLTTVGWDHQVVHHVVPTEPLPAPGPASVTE
Put plainly: PRMT5-MEP50 Enzyme Methylation Assay (Version A). Format: biochemical. How it is done: PRMT5-MEP50 Enzyme Methylation Assay (Version A)
PRMT5-MEP50 biochemical assay is a direct measurement of the methylation activity of the enzyme complex on a short peptide substrate derived from the N-terminus of H4 histone. Methylation experiment was performed with recombinant PRMT5-MEP50 protein complex. The assessment of inhibitory effect of small molecules was measured by the effectiveness of the compounds to inhibit this reaction (EC50).
In this assay, the potency (EC50) of each compound was determined from a twenty-point (1:2 serial dilution; top compound concentration of 100000 nM) titration curve using the following outlined procedure. To each well of a white ProxiPlus 384 well-plate, 100 nL of compound (1% DMSO in final assay volume of 10 μL) was dispensed, followed by the addition of 8 μL of 1× assay buffer (50 mM Bicine pH 8.0, 1 mM DTT, 0.004% Tween20, 0.01% BSA) containing 1.25 nM of Full-length (FL)-PRMT5-MEP50 enzyme complex (recombinant proteins from baculovirus-transfected Sf21 cells: FL-PRMT5; MW=[…] and FL-MEP50; MW=38614) and 1 μL of 150 μM S-(5′-Adenosyl)-L-Methionine Chloride (SAM). A plate were sealed and placed in a 37° C. humidified chamber for a 60 minutes pre-incubation with compound. Subsequently, each reaction was initiated by the addition of 1 μL 1× assay buffer containing 750 nM biotinylated H4R3(Me1) peptide. The final reaction in each well of 10 μL consists of 1.0 nM PRMT5-MEP50, 75 nM biotinylated-peptide, and 15 μM SAM. Methylation reactions were allowed to proceed for 150 minutes in a sealed plate at 37° C. Reactions were immediately quenched by the addition of 1 μL of 5% formic acid. A plate was then frozen and shipped to SAMDI™ Tech Inc. to determine the percent conversion from H4R3(Me1) to H4R3(Me2). Dose-response curves were generated by plotting percent effect (% product conversion; Y-axis) vs. Log 10 compound concentrations (X-axis). EC50 values were determined by non-linear regression according to models for either sigmoidal (4 parameters) or biphasic (7 parameters) dose-response curves.

Setting [3] is: second value of 7 parameter biphasic fit, read-out: Enzyme Methylation Assay Version A (EC50 2).
Setting [4] is: single EC50 = 4 parameter single site sigmoidal fit, EC50 1 = first value of 7 parameter biphasic fit, read-out: Enzyme Methylation Assay Version A (EC50 or EC50 1).

Where two headings read alike, the source gives them in different places.

On to `O=C(c1cn2cc(Br)nc(OC3CCOC3)c2n1)N1CC[C@]2(Cc3ccccc3CN2)[C@H](O)C1` (single isomer, unassigned) [Example 98, (6-bromo-8-(((S or R)(tetrahydrofuran-3-yl)oxy)imidazo[1,2-a]pyrazin-2-yl)((3R,3′R)-3′-hydroxy-1,4-dihydro-2H-spiro[isoquinoline-3,4′-piperidin]-1′-yl)methanone], for which the EC50 in test [1] (Homo sapiens, MCF7, 72 h) worked out at 6.86 nM; in test [2] (setting [3]) it was 104 nM; in test [2] (setting [4]), 0.191 nM.

`Cc1ccc(C(=O)N2CC[C@]3(Cc4ccccc4CN3)[C@H](O)C2)c(OCCO)n1` [Example 196, [(3R,3′R)-3′-hydroxy-1,4-dihydro-1′H,2H-spiro[isoquinoline-3,4′-piperidin]-1′-yl][2-(2-hydroxyethoxy)-6-methyl-3-pyridinyl]methanone]: the EC50 in test [1] (Homo sapiens, MCF7, 72 h) turned out to be 409 nM; in test [2] (setting [3]) it was 6310 nM; in test [2] (setting [4]), 15.3 nM.

Consider `CC(C)(O)COc1nc(Br)cn2cc(C(=O)N3CC[C@]4(Cc5ccccc5CN4)[C@H](O)C3)nc12` [Example 20, (6-bromo-8-(2-hydroxy-2-methylpropoxy)imidazo[1,2-a]pyrazin-2-yl)((3R,3’R)-3′-hydroxy-1,4-dihydro-2H-spiro[isoquinoline-3,4′-piperidin]-1′-yl)methanone], for which the EC50 worked out at 16.5 nM in test [1] (Homo sapiens, MCF7, 72 h); 151 nM in test [2] (setting [3]); 0.438 nM in test [2] (setting [4]).

Take `COCCOc1nc(Br)cn2cc(C(=O)N3CC[C@]4(Cc5ccccc5CN4)[C@H](O)C3)nc12` [Example 19, (6-bromo-8-(2-methoxyethoxy)imidazo[1,2-a]pyrazin-2-yl)((3R,3’R)-3′-hydroxy-1,4-dihydro-2H-spiro[isoquinoline-3,4′-piperidin]-1′-yl)methanone]: the EC50 in test [1] (Homo sapiens, MCF7, 72 h) worked out at 10.2 nM; in test [2] (setting [3]), 105 nM; in test [2] (setting [4]), 0.305 nM.

Regarding `Cc1cn2cc(C(=O)N3CC[C@]4(Cc5ccccc5CN4)[C@H](O)C3)nc2c(Cl)n1` [Example 252, (8-chloro-6-methylimidazo[1,2-a]pyrazin-2-yl)[(3R,3′R)-3′-hydroxy-1,4-dihydro-1′H,2H-spiro[isoquinoline-3,4′-piperidin]-1′-yl]methanone], the concentration for a half-maximal effect (EC50) in test [1] (Homo sapiens, MCF7, 72 h) stood at 680 nM; in test [2] (setting [3]), 7080 nM; in test [2] (setting [4]) it was 11.7 nM.

As to `CO[C@H](C)c1cc(-c2cccnc2C)cn2cc(C(=O)N3CC[C@]4(Cc5ccccc5CN4)[C@H](O)C3)nc12` [Example 239, [(3R,3′R)-3′-hydroxy-1,4-dihydro-1′H,2H-spiro[isoquinoline-3,4′-piperidin]-1′-yl]{8-[(1R)-1-methoxyethyl]-6-(2-methyl-3-pyridinyl)imidazo[1 2-a]pyridin-2-yl}methanone], the EC50 in test [1] (Homo sapiens, MCF7, 72 h) stood at 3.33 nM; in test [2] (setting [4]), 0.613 nM.

As to `COC(C)c1cc(Br)cn2cc(C(=O)N3CC[C@]4(Cc5cc(Cl)ccc5CN4)[C@H](O)C3)nc12` (single isomer, unassigned) [Example 225], the EC50 stood at 22.6 nM in test [1] (Homo sapiens, MCF7, 72 h); 398 nM in test [2] (setting [3]); 2.1 nM in test [2] (setting [4]).

As to `O=C(c1cn2c(n1)C(C1CCOC1)CC(C(F)(F)F)C2)N1CC[C@]2(Cc3ccccc3CN2)[C@H](O)C1` (single isomer, unassigned) [Example 160, ((3R,3′R)-3′-hydroxy-1,4-dihydro-2H-spiro[isoquinoline-3,4′-piperidin]-1′-yl)((6S,8S or 6R,8R)-8-((S or R)-tetrahydrofuran-3-yl)-6-(trifluoromethyl)-5,6,7,8-tetrahydroimidazo[1,2-a]pyridin-2-yl)methanone], the EC50 in test [1] came to 289 nM; in test [2] (setting [3]) it was 9480 nM; in test [2] (setting [4]) it was 9.52 nM.

Take `O=C(c1cn2cc(C(F)(F)F)cc(Cl)c2n1)N1CC[C@]2(Cc3ccccc3CN2)[C@H](O)C1` [Example 211, [8-chloro-6-(trifluoromethyl)imidazo[1,2-a]pyridin-2-yl][(3R,3′R)-3′-hydroxy-1,4-dihydro-1′H,2H-spiro[isoquinoline-3,4′-piperidin]-1′-yl]methanone]: the EC50 in test [1] (Homo sapiens, MCF7, 72 h) was found to be 7.99 nM; in test [2] (setting [3]) it was 71.6 nM; in test [2] (setting [4]) it was 0.191 nM.

In the case of `CC(C)(O)c1cc(Br)cn2cc(C(=O)N3CC[C@]4(Cc5ccccc5CN4)[C@H](O)C3)nc12` [Example 47, (6-bromo-8-(2-hydroxypropan-2-yl)imidazo[1,2-a]pyridin-2-yl)((3R,3’R)-3′-hydroxy-1,4-dihydro-2H-spiro[isoquinoline-3,4′-piperidin]-1′-yl)methanone], the EC50 in test [1] (Homo sapiens, MCF7, 72 h) worked out at 9.81 nM; in test [2] (setting [3]), 403 nM; in test [2] (setting [4]), 0.421 nM.

On to `COCc1nc(C)cn2cc(C(=O)N3CC[C@]4(Cc5ccccc5CN4)[C@H](O)C3)nc12` [Example 250, [(3R,3′R)-3′-hydroxy-1,4-dihydro-1′H,2H-spiro[isoquinoline-3,4′-piperidin]-1′-yl][8-(methoxymethyl)-6-methylimidazo[1,2-a]pyrazin-2-yl]methanone], for which the EC50 in test [1] (Homo sapiens, MCF7, 72 h) stood at 1730 nM; in test [2] (setting [4]), 610 nM.

With `CCCOc1nc(C)ccc1C(=O)N1CC[C@]2(Cc3ccccc3CN2)[C@H](O)C1` [Example 201, [(3R,3′R)-3′-hydroxy-1,4-dihydro-1′H,2H-spiro[isoquinoline-3,4′-piperidin]-1′-yl](6-methyl-2-propoxy-3-pyridinyl)methanone], the EC50 is 168 nM in test [1] (Homo sapiens, MCF7, 72 h); 1020 nM in test [2] (setting [3]); 1.36 nM in test [2] (setting [4]).

As to `CC(C)Oc1nc(Br)cn2cc(C(=O)N3CC[C@]4(Cc5ccccc5CN4)[C@H](O)C3)nc12` [Example 11, {6-bromo-8-[(propan-2-yl)oxy]imidazo[1,2-a]pyrazin-2-yl}((3R,3’R)-3′-hydroxy-1,4-dihydro-1′H,2H-spiro[isoquinoline-3,4′-piperidin]-1′-yl)methanone], the EC50 in test [1] (Homo sapiens, MCF7, 72 h) worked out at 4.2 nM; in test [2] (setting [3]), 88.6 nM; in test [2] (setting [4]), 0.495 nM.

Regarding `COC(C)c1ccc2nc(C(=O)N3CC[C@]4(Cc5ccccc5CN4)[C@H](O)C3)cn2c1` (single isomer, unassigned) [Example 22, ((3R,3’R)-3′-hydroxy-1,4-dihydro-2H-spiro[isoquinoline-3,4′-piperidin]-1′-yl)(6-((S or R)-1-methoxyethyl)imidazo[1,2-a]pyridin-2-yl)methanone], the EC50 in test [1] amounted to 16.8 nM; in test [2] (setting [3]), 439 nM; in test [2] (setting [4]), 0.674 nM.
